The values below come from publication PMC9321810, “Antiviral Cyclopropane Acids from Deep-Sea-Derived Fungus Aspergillus sydowii” (Marine Drugs, 2022).

One series in a line: in vitro. The conditions noted are these: dog.
The subject of series [1] is influenza virus A/WSN/33 (H1N1). The series can be described thus: cytopathic effect (CPE) reduction assay, anti-influenza virus. The series is classed as cell-based, influenza A/WSN/33 (H1N1).
The mark [2] stands for this setting: H1N1|WSN, MDCK, 40 h, read-out: IC50, inhibitory activity against influenza virus A/WSN/33 (H1N1), infected MDCK cells, MOI = 0.1, 40 h incubation, CellTiter-Glo readout.

Read-outs that look alike come from different tables or passages of the source.

In turn, `COC(=O)C(O)CC(=O)C1(C)C(C)C1CCC(C)=O` (centres unmarked) [Compound 1, sydocyclopropane A] yielded a CC50 at 40 h in the series “in vitro” above 100 µM. Also, the IC50 in series [1] (setting [2]) is 26.7 ± 0.9 µM.

As to `CC(=O)C1(C)C(C)C1CC(=O)O` (centres unmarked) [Compound 2, Sydocyclopropane B], in the series “in vitro”, the CC50 at 40 h was above 100 µM. Moreover, the IC50 in series [1] (setting [2]) came to 29.5 ± 1.4 µM.

The molecule `CC(=O)CCC1C(C)C1(C)C(=O)O` (centres unmarked) [Compound 3, sydocyclopropane C] showed a CC50 at 40 h in the series “in vitro” above 100 µM. In addition, in series [1] (setting [2]), the IC50 was determined as 77.2 ± 0.5 µM.

In the case of `CC(=O)CCC1C(C)C1(C)C(=O)O` (centres unmarked) [Compound 4, sydocyclopropane D], the IC50 in series [1] (read-out: IC50, inhibitory activity against influenza virus A/WSN/33 (H1N1), infected MDCK cells, MOI = 0.1, 40 h incubation, CellTiter-Glo readout) came out at 66.4 ± 1.7 µM.

`CC(=O)C=CC1C(C)C1(C)C(C)=O` (centres unmarked) [Compound 5, hamavellone B]: in the series “in vitro”, the CC50 at 40 h is above 100 µM. For the same molecule, the IC50 in series [1] (setting [2]) was 35.8 ± 3.2 µM.

In the series “in vitro”, `CCOC(=O)C1=C[C@@H](OC(CC)CC)[C@H](NC(C)=O)[C@@H](N)C1` [OSV, oseltamivir, reference compound] showed a CC50 at 40 h above 100 µM. In addition, the IC50 in series [1] (setting [2]) turned out to be 18.1 ± 1.2 µM.
